Experimental findings from ChEMBL document CHEMBL1149079, “A novel sesquiterpene quinone from Hainan sponge Dysidea villosa” (Bioorg Med Chem Lett, 2009) are described below.

Test [1] concerns Human immunodeficiency virus 1. In words: Antiviral activity against HIV1. Type of test: functional, organism-based.
For test [2], the target named is T1, Tyrosine-protein phosphatase non-receptor type 1 (Homo sapiens, UniProt P18031).
T1 sequence (P18031 whole entry): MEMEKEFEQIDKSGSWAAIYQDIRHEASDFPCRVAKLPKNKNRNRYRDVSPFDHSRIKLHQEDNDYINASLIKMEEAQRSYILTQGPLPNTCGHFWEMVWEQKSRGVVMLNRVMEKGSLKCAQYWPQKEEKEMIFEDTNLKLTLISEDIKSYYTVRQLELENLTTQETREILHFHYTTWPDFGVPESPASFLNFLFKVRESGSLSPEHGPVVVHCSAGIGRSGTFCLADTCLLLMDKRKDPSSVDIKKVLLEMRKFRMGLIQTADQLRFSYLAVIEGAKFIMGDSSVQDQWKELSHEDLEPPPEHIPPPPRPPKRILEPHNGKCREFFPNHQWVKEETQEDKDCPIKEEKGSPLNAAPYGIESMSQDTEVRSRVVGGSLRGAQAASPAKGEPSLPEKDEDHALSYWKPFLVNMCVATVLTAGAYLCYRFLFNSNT
In words: Inhibition of human PTP1B.

Test [3] deals with CHO-K1. Kind of test: Induction of membrane translocation of GLUT4 transporter in CHOK1 cells. Conditions: Cricetulus griseus. Type of test: functional, cell-based.
For test [4], the system named is 3T3-L1. Kind of test: Increase in glucose uptake in mouse 3T3L1 cells relative to control. The format is functional.
Test [5] relates to CHO-K1. In words: Activation of insulin signaling pathway in CHOK1 cells. Type of test: functional, cell-based. Conditions: Cricetulus griseus.
Test [6] deals with 3T3-L1. In words: Activation of insulin signaling pathway in mouse 3T3L1 cells. The format is functional, cell-based.
In test [7] the test system is 3T3-L1. In words: Induction of membrane translocation of GLUT4 transporter in mouse 3T3L1 cells. The format is functional, cell-based.
Another test concerns HeLa. In words: Cytotoxicity against human HeLa cells. Type of test: functional, cell-based.

SMILES strings stand for the structures. Calls of active or inactive are those of the source. The rule behind the calls is not given here.

`CC1=CCC[C@H]2[C@](C)(Cc3cc(O)ccc3O)[C@@H](C)CC[C@]12C`: the result in test [1] was inactive.

Turning to `CC1=CCC[C@H]2[C@@H](C)[C@@](C)(CC3=C(O)C(=O)C=C(NCCS(=O)(=O)O)C3=O)CC[C@]12C` [DYSIDINE], the 50% inhibitory concentration (IC50) in test [2] is 6.7 µM. The result in the test with CHO-K1 [3], in the test on CHO-K1 [5], in the test with 3T3-L1 [6] and in the test on 3T3-L1 [7] was Active. This compound came in with an Activity with 3T3-L1 [4] of 2.3. Moreover, the outcome in test [1] was inactive.

Turning to `CC1=CCC[C@H]2[C@](C)(CC3=CC(=O)C=CC3=O)[C@@H](C)CC[C@]12C`, the result in test [1] was inactive.

Take `COC1=CC(=O)C=C(C[C@@]2(C)CC[C@]3(C)C(C)=CCC[C@H]3[C@H]2C)C1=O`: the 50% inhibitory concentration (IC50) in test [2] worked out at 39.5 µM; in the test with HeLa it was 19.4 µM. The result in test [1] was inactive.

As to `COC1=CC(=O)C(O)=C(C[C@@]2(C)CC[C@]3(C)C(C)=CCC[C@H]3[C@H]2C)C1=O` [BOLINAQUINONE], the IC50 with HeLa was found to be 5.45 µM. For the same compound, in test [1], the result was inactive.

A word on the IC50: it is the point on the concentration scale where inhibition reaches its midpoint. Lower therefore signals greater potency in that assay.
